Experimental data: the supplement of paper PMC10307832

Tests used:
Test in all cases: relative viability (nuclei count vs DMSO), 5 days (fraction); higher = more cells survive
[1] = compound: O=C(C[C@H]1NCCC[C@@H]1O)Cn1cnc2cc(Br)c(Cl)cc2c1=O (racemic) [Halofuginone] + Cc1nc(Nc2ncc(C(=O)Nc3c(C)cccc3Cl)s2)cc(N2CCN(CCO)CC2)n1 [Dasatinib] (partner 0.075 µM)
In short: (§1)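 Dosing by pin tool came one day after lung cancer cell lines were seeded in 1536-well plates, using either one drug or a fixed anchor-drug dose plus five library-drug doses (not always all listed) in √10 steps. After 5 days, nuclei were counted on 4× images. Relative viability is treated-well nuclei count divided by vehicle-well nuclei count, and values are medians of duplicate plates.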

[2] = compound: O=C(C[C@H]1NCCC[C@@H]1O)Cn1cnc2cc(Br)c(Cl)cc2c1=O (racemic) [Halofuginone] + Cc1nc(NC(=O)N2CCC[C@H]2C(N)=O)sc1-c1ccnc(C(C)(C)C(F)(F)F)c1 [Alpelisib] (partner 2 µM)
In short: as §1

[3] = compound: COc1cc2c(Oc3ccc4[nH]c(C)cc4c3F)ncnc2cc1OCCCN1CCCC1 [Cediranib] + CS(=O)(=O)CCNCc1ccc(-c2ccc3ncnc(Nc4ccc(OCc5cccc(F)c5)c(Cl)c4)c3c2)o1 [Lapatinib] (partner 2 µM)
In short: as §1

[4] = compound: COc1cc2c(Oc3ccc4[nH]c(C)cc4c3F)ncnc2cc1OCCCN1CCCC1 [Cediranib] + CC(=O)c1c(C)c2cnc(Nc3ccc(N4CCNCC4)cn3)nc2n(C2CCCC2)c1=O [Palbociclib] (partner 0.5 µM)
In short: as §1

Row | Cell Line | relative viability ([1]; first compound 0.001 µM) | relative viability ([1]; first compound 0.003162 µM) | relative viability ([1]; first compound 0.01 µM) | relative viability ([1]; first compound 0.03162 µM) | relative viability ([1]; first compound 0.1 µM) | relative viability ([2]; first compound 0.001 µM) | relative viability ([2]; first compound 0.003162 µM) | relative viability ([2]; first compound 0.01 µM) | relative viability ([2]; first compound 0.03162 µM) | relative viability ([2]; first compound 0.1 µM) | relative viability ([3]; first compound 0.04 µM) | relative viability ([3]; first compound 0.1265 µM) | relative viability ([3]; first compound 0.4 µM) | relative viability ([3]; first compound 1.265 µM) | relative viability ([3]; first compound 4 µM) | relative viability ([4]; first compound 0.04 µM) | relative viability ([4]; first compound 0.1265 µM) | relative viability ([4]; first compound 0.4 µM) | relative viability ([4]; first compound 1.265 µM) | relative viability ([4]; first compound 4 µM)
1 | NCI-H2023 | 0.649 | 0.609 | 0.507 | 0.241 | 0.0614 | 0.645 | 0.624 | 0.519 | 0.281 | 0.147 | 0.852 | 0.0771 | 0.716 | 0.654 | 0.878 | 0.398 | 0.344 | 0.359 | 0.413 | 0.397
2 | EBC-1 | – | – | – | – | – | 0.939 | 0.779 | 0.666 | 0.441 | 0.181 | 0.252 | 0.206 | 0.213 | 0.226 | 0.202 | – | – | – | – | –
3 | NCI-H1666 | 0.812 | 0.802 | 0.753 | 0.766 | 0.664 | 0.936 | 0.791 | 0.857 | 0.92 | 0.607 | 0.678 | 0.339 | 0.554 | 0.541 | 0.69 | 0.681 | 0.61 | 0.636 | 0.644 | 0.658
4 | NCI-H1975 | 0.375 | 0.324 | 0.348 | 0.231 | 0.117 | 0.684 | 0.674 | 0.719 | 0.302 | 0.115 | 1.06 | 1.26 | 0.801 | 0.905 | 0.835 | 0.62 | 0.608 | 0.491 | 0.578 | 0.547
5 | NCI-H2170 | 0.623 | 0.639 | 0.575 | 0.444 | 0.473 | 0.863 | 0.846 | 0.799 | 0.681 | 0.656 | 0.295 | 0.277 | 0.243 | 0.232 | 0.268 | 0.438 | – | 0.371 | 0.372 | 0.381
6 | NCI-H1355 | 0.762 | 0.764 | 0.727 | 0.692 | 0.458 | 0.811 | 0.781 | 0.894 | 0.79 | 0.743 | 1.01 | 0.693 | 0.955 | 0.798 | 1.03 | 0.413 | 0.426 | 0.367 | 0.39 | 0.423
7 | NCI-H1648 | – | – | – | – | – | – | – | – | – | – | – | – | – | – | – | 0.28 | 0.242 | 0.287 | 0.307 | 0.633
8 | A549 | – | – | – | – | – | 0.919 | 0.765 | 0.685 | 0.44 | 0.15 | 0.927 | 1.01 | 0.949 | 0.994 | 0.992 | – | – | – | – | –
9 | SK-MES-1 | 0.38 | 0.429 | 0.446 | 0.283 | 0.117 | 0.952 | 1.32 | 0.853 | 0.832 | 0.522 | 0.471 | 0.502 | 0.441 | 0.514 | 0.473 | 0.304 | 0.311 | 0.328 | 0.283 | 0.324
10 | EKVX | 0.522 | 0.445 | 0.662 | 0.605 | 0.418 | 1.01 | 0.922 | 0.862 | 0.859 | 0.638 | 0.19 | 0.23 | 0.196 | 0.227 | 0.203 | 0.394 | 0.386 | 0.326 | – | 0.316
11 | RERF-LC-KJ | 0.875 | 0.91 | 0.764 | 0.862 | 0.633 | 0.849 | 1.09 | 0.735 | 0.908 | 0.831 | 0.94 | 0.751 | 0.783 | 0.836 | 0.954 | 1.15 | 1.02 | 1 | 1.15 | 1.13
12 | NCI-H1755 | 0.514 | 0.435 | 0.465 | 0.422 | 0.291 | 0.866 | 0.937 | 0.891 | 0.923 | 0.588 | 1.14 | 0.778 | 1.01 | 1.05 | 0.941 | 0.441 | 0.429 | 0.436 | 0.441 | 0.422
13 | NCI-H661 | 0.954 | 0.884 | 0.856 | 0.79 | 0.378 | 0.687 | 0.65 | 0.53 | 0.817 | 0.68 | 0.552 | 0.738 | 0.403 | 0.494 | 0.544 | 0.452 | 0.441 | 0.405 | 0.391 | 0.442
14 | LOU-NH91 | 0.632 | 0.578 | 0.555 | 0.582 | 0.498 | 0.774 | 0.731 | 0.721 | 0.741 | 0.64 | 0.818 | 0.788 | 0.807 | 0.676 | 0.761 | 0.55 | 0.561 | 0.51 | 0.513 | 0.533
15 | LXF-289 | 0.318 | 0.266 | 0.267 | 0.222 | 0.198 | 1.04 | 1.08 | 1.01 | 0.994 | 0.852 | 0.988 | 0.816 | 0.852 | 0.958 | 0.846 | 0.617 | – | 0.569 | 0.566 | 0.609
16 | HCC-44 | – | – | – | – | – | 0.804 | 0.774 | 0.691 | 0.797 | 0.433 | 0.982 | – | 0.951 | 0.995 | 0.949 | 0.983 | 0.917 | 0.974 | 0.947 | 1.01
17 | HARA | 0.273 | 0.225 | 0.304 | 0.276 | 0.191 | 1.05 | 0.817 | 0.836 | 0.839 | 0.743 | 0.762 | 0.994 | 0.7 | 0.708 | 0.703 | 0.249 | 0.32 | 0.298 | 0.301 | 0.211
18 | 201T | 0.595 | 0.586 | 0.572 | 0.543 | 0.306 | 1.04 | 1.01 | 1.01 | 0.998 | 0.841 | 1.08 | 0.897 | 1.02 | 1.01 | 0.996 | 0.368 | 0.429 | 0.352 | 0.372 | 0.341
